Results published in ChEMBL document CHEMBL4340570, “Design, synthesis, and biological evaluation of novel 4-oxobenzo[d]1,2,3-triazin-benzylpyridinum derivatives as potent anti-Alzheimer agents” (Bioorg Med Chem, 2019).
Activity calls are given as the source filed them. No cut-off for these calls is given here.

Tests used:
[1] = molecular target: T1, Acetylcholinesterase (Electrophorus electricus, UniProt O42275); experiment: Inhibition of electric eel AChE pre-incubated for 5 mins before acetylthiocholine iodide substrate addition and measured after 15 mins by Ellman's method
T1 sequence (O42275 whole entry): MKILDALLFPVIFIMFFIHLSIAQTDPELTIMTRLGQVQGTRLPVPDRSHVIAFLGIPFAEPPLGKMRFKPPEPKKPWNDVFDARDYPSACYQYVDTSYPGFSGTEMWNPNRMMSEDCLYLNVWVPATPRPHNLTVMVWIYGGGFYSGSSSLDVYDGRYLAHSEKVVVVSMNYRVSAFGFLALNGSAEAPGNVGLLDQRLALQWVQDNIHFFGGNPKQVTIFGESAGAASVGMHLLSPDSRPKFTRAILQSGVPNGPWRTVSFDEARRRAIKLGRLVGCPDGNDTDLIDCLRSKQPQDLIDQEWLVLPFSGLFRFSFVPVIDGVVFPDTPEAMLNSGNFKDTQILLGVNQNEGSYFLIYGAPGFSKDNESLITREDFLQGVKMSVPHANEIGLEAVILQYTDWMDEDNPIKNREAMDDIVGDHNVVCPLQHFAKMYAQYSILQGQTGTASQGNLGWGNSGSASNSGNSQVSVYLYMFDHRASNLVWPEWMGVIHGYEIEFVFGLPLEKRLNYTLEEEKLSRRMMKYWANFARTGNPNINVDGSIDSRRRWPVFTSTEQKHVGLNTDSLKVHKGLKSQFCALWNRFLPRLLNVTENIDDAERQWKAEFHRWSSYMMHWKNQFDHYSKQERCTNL

[2] = molecular target: Cholinesterase (Equus caballus, UniProt P81908); experiment: Inhibition of equine serum BuChE pre-incubated for 5 mins before butyrylthiocholine iodide substrate addition and measured after 15 mins by Ellman's method
Sequence of Cholinesterase (P81908 whole entry): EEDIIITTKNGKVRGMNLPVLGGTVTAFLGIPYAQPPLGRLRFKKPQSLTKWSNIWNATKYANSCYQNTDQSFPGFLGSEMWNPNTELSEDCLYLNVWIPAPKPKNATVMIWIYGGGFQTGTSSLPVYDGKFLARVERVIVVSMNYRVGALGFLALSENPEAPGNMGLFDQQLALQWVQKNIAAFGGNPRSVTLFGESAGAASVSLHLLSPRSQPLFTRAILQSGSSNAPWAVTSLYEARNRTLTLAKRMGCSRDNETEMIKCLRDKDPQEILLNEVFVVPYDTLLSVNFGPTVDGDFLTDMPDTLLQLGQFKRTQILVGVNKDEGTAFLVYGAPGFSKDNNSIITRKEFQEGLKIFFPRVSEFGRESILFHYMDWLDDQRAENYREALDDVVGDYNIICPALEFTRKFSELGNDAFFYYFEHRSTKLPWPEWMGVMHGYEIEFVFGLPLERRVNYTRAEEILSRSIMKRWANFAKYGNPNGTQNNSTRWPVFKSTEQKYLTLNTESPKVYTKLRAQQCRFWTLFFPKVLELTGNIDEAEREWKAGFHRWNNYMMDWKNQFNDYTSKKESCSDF

[3] = tested on: PC-12; experiment: Neuroprotective activity in rat PC12 cells assessed as protection against H2O2-induced cytotoxicity at 10 uM pre-incubated for 3 hrs before H2O2 addition and measured after 12 hrs by MTT assay; format: functional, cell-based
[4] = tested on: PC-12; experiment: Neuroprotective activity in rat PC12 cells assessed as protection against H2O2-induced cytotoxicity at 1 uM pre-incubated for 3 hrs before H2O2 addition and measured after 12 hrs by MTT assay; format: functional, cell-based
[5] = tested on: PC-12; experiment: Neuroprotective activity in rat PC12 cells assessed as protection against H2O2-induced cytotoxicity at 100 uM pre-incubated for 3 hrs before H2O2 addition and measured after 12 hrs by MTT assay; format: functional, cell-based
[6] = molecular target: T1, Acetylcholinesterase; experiment: Mixed type inhibition of electric eel AChE pre-incubated for 5 mins before acetylthiocholine iodide substrate addition and measured after 15 mins by modified Ellman's method baaed Lineweaver-Burk plot analysis
[7] = molecular target: Beta-secretase 1 (Homo sapiens) (UniProt P56817); experiment: Inhibition of recombinant human BACE1 (1 to 460 residues) expressed in baculovirus-infected insect cells at 10 uM using Rh-EVNLDAEFK-quencher as substrate measured after 90 mins by FRET assay relative to control
Sequence of Beta-secretase 1 (Homo sapiens) (P56817 whole entry, the tested form may be a part): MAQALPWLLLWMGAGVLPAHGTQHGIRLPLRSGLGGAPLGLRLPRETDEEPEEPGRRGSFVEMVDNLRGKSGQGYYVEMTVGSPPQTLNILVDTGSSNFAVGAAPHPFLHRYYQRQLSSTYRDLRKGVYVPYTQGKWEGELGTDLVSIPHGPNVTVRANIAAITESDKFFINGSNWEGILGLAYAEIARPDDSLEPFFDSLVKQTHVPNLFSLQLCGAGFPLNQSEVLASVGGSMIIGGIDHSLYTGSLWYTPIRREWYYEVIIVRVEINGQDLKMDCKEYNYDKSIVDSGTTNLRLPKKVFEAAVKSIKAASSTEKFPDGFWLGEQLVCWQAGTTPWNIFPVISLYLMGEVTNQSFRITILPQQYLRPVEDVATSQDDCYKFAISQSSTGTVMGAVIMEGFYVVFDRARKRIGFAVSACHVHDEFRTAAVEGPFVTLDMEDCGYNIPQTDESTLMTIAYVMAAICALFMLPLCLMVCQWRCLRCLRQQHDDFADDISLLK

[8] = molecular target: Beta-secretase 1 (Homo sapiens) (UniProt P56817); experiment: Inhibition of recombinant human BACE1 (1 to 460 residues) expressed in baculovirus-infected insect cells at 50 uM using Rh-EVNLDAEFK-quencher as substrate measured after 90 mins by FRET assay relative to control

| Compound | IC50 [1] [nM] | IC50 [2] [nM] | other results |
| --- | --- | --- | --- |
| O=c1c2ccccc2nnn1Cc1ccc[n+](Cc2c(Cl)cccc2Cl)c1 | 730 | 21600 | – |
| O=c1c2ccccc2nnn1Cc1ccc[n+](Cc2ccccc2)c1 | 170 | 31200 | – |
| O=c1c(O)c(-c2ccc(O)c(O)c2)oc2cc(O)cc(O)c12 | – | – | Activity [3]: Active |
| O=c1c2ccccc2nnn1Cc1cc[n+](Cc2ccc(Br)cc2)cc1 | 1180 | 51800 | – |
| Cc1ccccc1C[n+]1cccc(Cn2nnc3ccccc3c2=O)c1 | 200 | 13700 | – |
| O=c1c2ccccc2nnn1Cc1cc[n+](Cc2ccccc2)cc1 | 1340 | 75200 | – |
| O=c1c2ccccc2nnn1Cc1ccc[n+](Cc2ccc([N+](=O)[O-])cc2)c1 | 160 | 17200 | – |
| O=c1c2ccccc2nnn1Cc1ccc[n+](Cc2ccccc2F)c1 | 290 | 23900 | – |
| O=c1c2ccccc2nnn1Cc1cc[n+](Cc2ccccc2Cl)cc1 | 1370 | 55000 | – |
| O=c1c2ccccc2nnn1Cc1ccc[n+](Cc2ccc(Br)cc2)c1 | 840 | 5800 | – |
| O=c1c2ccccc2nnn1Cc1cc[n+](Cc2ccccc2[N+](=O)[O-])cc1 | 1300 | 18200 | – |
| O=c1c2ccccc2nnn1Cc1ccc[n+](Cc2ccccc2Br)c1 | 150 | 16800 | Activity [3]: Active; Activity [4]: Active; Activity [5]: Active |
| O=c1c2ccccc2nnn1Cc1ccc[n+](Cc2ccccc2[N+](=O)[O-])c1 | 100 | 17500 | Ki [6]: 17 nM; inhibition [7]: 37%; inhibition [8]: 61.2%; Activity [5]: Active |
| O=c1c2ccccc2nnn1Cc1ccc[n+](Cc2cccc(F)c2)c1 | 170 | 27800 | – |
| O=c1c2ccccc2nnn1Cc1ccc[n+](Cc2cccc(Br)c2)c1 | 300 | 14700 | – |
| O=c1c2ccccc2nnn1Cc1cc[n+](Cc2ccccc2F)cc1 | 1680 | 64600 | – |
| O=c1c2ccccc2nnn1Cc1ccc[n+](Cc2ccc(F)cc2)c1 | 150 | 23800 | Activity [4]: Active |
| O=c1c2ccccc2nnn1Cc1cc[n+](Cc2ccc(F)cc2)cc1 | 1640 | 70700 | – |
